The source of these data is patent US5578639A, “PLA2 inhibitors and their use for inhibition of intestinal cholesterol absorption” (Warner-Lambert Company, priority 1995, dated 1996).

Read-outs that look alike come from different tables or passages of the source.

The subject of one assay is plasma lipids. As to the kind of experiment: Plasma lipids in cholesterol-fed rats after oral PLA2 inhibitor. Type of assay: in vivo. To be noted: 100 mg/kg oral gavage, about 8 hours after start of feeding. The method, then:
Ultimately, agents that inhibit the absorption of dietary cholesterol should suppress postprandial increases in plasma cholesterol. This was tested with several. PLA2 inhibitors in cholesterol-fed rats. The general protocol consisted of preparing a carboxymethyl cellulose/Tween 20 dispersion of the compound of interest and administering it at a dose of 100 mg/kg by oral gavage to rats previously trained to meal-feed. Immediately following administration of the inhibitor, the rats were fed a lipid-rich meal of chow supplemented with cholesterol, peanut oil, and cholic acid.

A further assay has as its target T1, porcine pancreatic PLA2 (Sus scrofa, UniProt P00592).
T1 construct: purchased Sigma Chemical Company (St. Louis, Mo.); host or cells: porcine pancreas
As to the kind of experiment: Fluorescence assay of porcine pancreatic PLA2 inhibition in vitro. The format is biochemical. The text has this: The IC50 values for inhibition of porcine pancreatic PLA2, in vitro, are included for comparison with the in vivo activities.
A sensitive fluorescence method was used to measure the activity of pancreatic phospholipase A2 (PLA2) in vitro. PLA2 hydrolyzes the ester bond linking fatty acids to the sn-2 position in glycerophospholipids. Several types of PLA2 exist, including those isolated from venoms, synovial fluid, platelets, immunoactive cell types and the pancreas. The pancreatic PLA2 was the subject of this experiment because of its fundamental role in promoting lipid absorption in the intestine.
PLA2 activity was detected by the loss of pyrene excimer fluorescence that occurs when (1-pyrenyl)decanoic acid is hydrolysed from the sn-2 position of 1,2-bis-(1-pyrenedecanoyl)sn-glycero-3-phosphocholine ((P10)2 PC) by the action of PLA2. The use of similar pyrene-labeled PC substrates to detect PLA2 activity has been described previously (Radvanyi F., Jordan L., Russo-Marie F., Bon C., "A sensitive and continuous fluorometric assay for phospholipase A2 using pyrene-labeled phospholipids in the presence of serum albumin." Anal. Biochem., 177:103-109 (1989)). The full photophysical basis for the assay is described elsewhere (Birks J. B., "Photophysics of Aromatic Molecules," Wiley Interscience, New York, pp 301-371 (1970)).
In brief, pyrene excimers are formed by the complexation of one pyrene moiety in the ground-state with one pyrene moiety in the excited state to form an excited-state dimer (excimer) which fluoresces at longer wavelengths (475 nm emission maximum) than the wavelength range in which excited-state pyrene monomers fluoresce (370-400 nm). Excimer formation is dependent on the concentration of pyrene moieties. (P10)2 PC emits excimer fluorescence almost exclusively due to the fixed juxtaposition of the pyrene chromophores. The substrate concentration is sufficiently dilute so that excimer formation between the products of PLA2 action, namely lysoPY10PC and the (1-pyrenyl)decanoic acid, is insignificant.
In general, this assay scheme should have been applicable to the study of any type of PLA2. However, since pancreatic PLA2 is unique from the other PLA2 's in that it operates almost exclusively against micellized PC, the PC substrate in this assay was micellized with 1 mM deoxycholic acid. The PC component of the micelles consisted of 5 μM (P10)2 PC substrate diluted with a 99-fold excess (495 μM) of 1-oleyl-2-palmityl phosphatidylcholine (OPPC). The OPPC was inert to PLA2 hydrolysis because it contained ether-linked fatty alkyl chains in place of the ester-linked fatty acyl chains of normal PC. OPPC was included to 1) dilute the micellar (P10)2 PC concentration thereby minimizing intermolecular excimer formation, and 2) preserve the integrity of the micelles against the action of PLA2 since nonspecific micelle disruption could lead to nonlinear kinetics and fluorescence changes independent of lipolysis.
Phospholipase A2 (porcine pancreas), bovine serum albumin (BSA) (fraction V, essentially fatty acid-free) and sodium deoxycholate were obtained from Sigma Chemical Company, (St. Louis, Mo.). 1-Oleyl-2-palmityl-DL-phosphatidylcholine (OPPC) was ordered from Serdary Research Laboratories, Inc. (London, Ont., Canada). 1,2-Bis-(1-pyrenedecanoyl)-sn-glycero-3-phosphatidylcholine ((P10)2 PC) was obtained from Molecular Probes, Inc. (Eugene, Oreg.).
HEPES buffer (SHE) contained 150 mM NaCl, 20 mM HEPES (N-[2-hydroxyethyl]piperazine-N'-[2-ethanesulfonic acid]) and 1 mM EDTA (ethylenediamine tetraacetic acid) at pH 8.0.
1 mM (P10)2 PC in chloroform was prepared by adding 1 mL chloroform to a vial containing 1 mg of (P10)2 PC, as shipped by Molecular Probes. The actual concentration was determined spectrophotometrically by diluting 10 μL of the chloroform solution in 2 mL of ethanol. The absorbance spectrum of the ethanol solution was measured between 380 nm to 280 nm (Beckman DU-64). […]

For another assay, the system named is PLA2. To be noted: methyl-phosphatidic acid substrate; Jain et al. 1992; read-out: IC50 in "scooting-mode" assay; cited from earlier work.
The subject of assay [1] is intestinal lipid absorption. As to the kind of experiment: Lymph-fistula rats, diester and diether PC analogs. The format is in vivo, rat. The text has this:
The intestinal lipid absorption pathway was isolated in the rat by inserting an infusion cannula in the proximal duodenum and implanting a second cannula in the mesenteric lymph vessel to intercept the lipoprotein output from the intestine. This lymph-fistula rat model was used to investigate the effect of pancreatic PLA2 inhibition, in situ, on intestinal absorption of infused lipid emulsions. In a typical experiment, cannulae were implanted the day before the experimental infusion. Following surgery, the animals were infused (2.5 mL/hr) with isotonic saline containing dextrose to flush the GI tract and obtain basal levels of lymphatic lipid output. On the day of the experiment, infusion of the dextrose recovery solution was continued for 1 hour to collect a basal lymph fraction. At the start of the next hour, the intake of the duodenal infusion cannula was switched to a lipid emulsion of isotonic saline containing safflower oil (59 mM), cholesterol (5.2 mM), PC (3.3 mM) and taurocholic acid (1.9 mM). One hour lymph fractions were collected until the end of the experiment. The lipid content (mass) of lymph fractions was determined by HPLC with a mass-sensitive, evaporative light-scattering detector.
PC analogs in which the normal acyl chains are replaced by alkyl carbon chains linked to the glycerol backbone by ether bonds have physical-chemical properties similar to conventional diester PC molecules but are not hydrolyzable by PLA2. To determine the significance of micellar PC hydrolysis in intestinal lipid absorption, a comparison was made of the mesenteric lymph lipid output from rats infused with lipid microemulsions prepared with 1,2-dipalmitoyl PC (DPPC(ester)) or 1,2-dipalmityl PC (DPPC(ether)) as the PC constituent. […] The total lymphatic CE output over the 12-hour period of DPPC(ether) infusion was only 47% of total CE output obtained with the DPPC(ester) emulsion.

The test system of assay [2] is Caco-2 cells. As to the kind of experiment: Caco-2 phospholipase A2-dependent cholesterol absorption, time course. The format is cell-based, human.
The subject of the next assay is cholesterol absorption. To be noted: Rampone and Long 1977; cited from earlier work.
Assay [3] concerns Caco-2 cells. As to the kind of experiment: Caco-2 lipid absorption versus micellar phospholipid composition. The format is cell-based, human. The method, then: Caco-2 cells were used as a tissue culture model of the human intestinal epithelium to compare the effects of phosphatidylcholine and lysophosphatidylcholine on lipid absorption and the subsequent re-esterification and secretion of micelle-derived lipids.
Caco-2 cell monolayers, grown on micropore membranes separating apical and basolateral culture solutions, were incubated with taurocholate, mixed-lipid micelles composed of 5 mM taurocholic acid, 300 μM monooleoylglycerol, 500 μM [^3 H]oleic acid, 100 μM [^14 C]cholesterol, and 200 μM phospholipid consisting of various proportions of 1-palmitoyl-2-oleoyl phosphatidylcholine and 1-palmitoyl lysophosphatidylcholine. The micelles were added to the apical side of the cell monolayers. Phospholipid-free micelles were also tested for comparison. At the end of 6 hours of incubation, the radiolabeled lipid content of the cells and in the basolateral media were determined. Phospholipid content strongly influenced the absorption and metabolism of cholesterol (FIGS. 1, 2) but had only minimal effects on fatty acid uptake and metabolism (FIG. 3). Caco-2 monolayers incubated with micelles containing only phosphatidylcholine as the phospholipid absorbed 65% less [^14 C]cholesterol than cell monolayers incubated with phospholipid-free micelles.

The subject of a further assay is serum cholesterol. The conditions noted are these: neomycin 1.5-2 g/day; β-sitosterol 3-50 g/day; cited from earlier work.
Setting [4] is: porcine pancreatic PLA2, in vitro, read-out: In Vitro IC50 (porc. panc. PLA2).

T1 sequence (P00592 23-146): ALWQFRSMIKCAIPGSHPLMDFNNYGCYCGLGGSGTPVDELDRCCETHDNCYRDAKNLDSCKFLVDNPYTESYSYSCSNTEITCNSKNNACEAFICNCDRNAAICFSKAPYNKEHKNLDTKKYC

By IC50 is commonly meant the concentration that inhibits the measured activity by half. On to “1-[4,4-bis(4-fluorophenyl)butyl]-3-(3-methoxyphenyl)-3-methyl-pyrrolidine [Compound C]”, for which, in the assay on plasma lipids, the “% Change in plasma lipids vs. Control: HDL Chol.” value worked out at 38%, the “% Change in plasma lipids vs. Control: Total Chol.” value (shortened to “% Change … Total Chol.”) was -30% and the “% Change in plasma lipids vs. Control: non-HDL Chol.” value (from here on “% Change … non-HDL Chol.”) is -49%. Also, the IC50 at porcine pancreatic PLA2 (setting [4]) came to 5.7 µM.

For the compound `CCCCCCC(c1ccc(O)c(C)c1)c1ccc(O)c(C)c1` [Compound A, 4,4'-heptylidenebis-2-methyl-phenol], in the assay with plasma lipids, the “% Change in plasma lipids vs. Control: HDL Chol.” value is on record as 1%, the “% Change in plasma lipids vs. Control: TG” value (shortened to “% Change … TG”) was -11%, the “% Change … Total Chol.” value was -24% and the “% Change … non-HDL Chol.” value is recorded as -32%. Further, at porcine pancreatic PLA2 (setting [4]), the IC50 came out at 2.2 µM.

Regarding `CCCCCCCC/C=C\CCCCCCCC(N)=O` [Compound E, (Z)-9-octadecen-amide, reference compound], in the assay on plasma lipids, the “% Change in plasma lipids vs. Control: HDL Chol.” value stood at 2%, the “% Change … TG” value was -35%, the “% Change … Total Chol.” value is -42% and the “% Change … non-HDL Chol.” value was -56%. Besides, the IC50 in the assay with PLA2 is 0.1 µM. The IC50 on porcine pancreatic PLA2 (FIG. 12, (P10)2 PC substrate, read-out: IC50 in the fluorescence assay) amounted to 3 µM. Further, the IC50 at porcine pancreatic PLA2 (setting [4]) stood at 2.4 µM.

For `Cc1ccc(Nc2cccc(Cl)c2)c(/C=C/C(=O)O)c1` [Compound F, 2-(M-chloroanilino)-5-methyl-trans-cinnamic acid], in the assay on plasma lipids, the “% Change in plasma lipids vs. Control: HDL Chol.” value was determined as 2%, the “% Change … TG” value is reported as -5%, the “% Change … Total Chol.” value is recorded as -15% and the “% Change … non-HDL Chol.” value is -20%. Besides, the IC50 at porcine pancreatic PLA2 (setting [4]) was 8.6 µM.

Turning to `Cc1ccc(Nc2ccccc2F)c(/C=C/C(=O)O)c1` [Compound G, 2-(O-fluoroanilino)-5-methyl-trans-cinnamic acid], in the assay on plasma lipids, the “% Change in plasma lipids vs. Control: HDL Chol.” value was 15%, the “% Change … TG” value is -24%, the “% Change … Total Chol.” value was -12% and the “% Change … non-HDL Chol.” value is recorded as -21%. Besides, the IC50 on porcine pancreatic PLA2 (setting [4]) was 4.6 µM.

Turning to `CCCCCCCCCCCCCCCCOCC(COP(=O)([O-])OCC[N+](C)(C)C)OCCCCCCCCCCCCCCCC` (stereo not drawn) [DPPC(ether), 1,2-dipalmityl PC], the “total lymphatic CE output relative to DPPC(ester)” value in assay [1] (12-hour infusion) is given as 47%. Moreover, the “time until lymphatic cholesteryl ester output rose above basal” value in assay [1] (after initiation of lipid emulsion infusion) worked out at 8 h. The “onset of rise in lymphatic TG and PC output” value in assay [1] (following initiation of lipid infusion) is recorded as “not delayed”. In addition, in assay [1] (infusion of lipid emulsion), the “total lymphatic PC output relative to DPPC(ester)” value stood at 75% and the “total lymphatic TG output relative to DPPC(ester)” value is listed as 71%.

Take `CCCCCCCCCCCCCCCC(=O)OCC(O)COP(=O)([O-])OCC[N+](C)(C)C` (stereo not drawn) [lysophosphatidylcholine, 1-palmitoyl lysophosphatidylcholine]: the “[3H]oleate-labeled PC synthesis relative to phospholipid-free micelles” value in the assay on Caco-2 cells [2] was “slight decrease”. The “inhibition of cholesterol absorption by intestinal segments” value in the assay with cholesterol absorption is “no inhibition”. In addition, the “reversal of PC effect on cholesterol absorption” value in the assay with Caco-2 cells [3] (6 hours, lysophosphatidylcholine substituted for phosphatidylcholine) is listed as “reversed this effect, but only when the mole fraction of micellar lysophosphatidylcholine was greater than 50%”.

`CCCCCCCCCCCCCCCCOCC(COP(=O)([O-])OCC[N+](C)(C)C)OCCCCCCCCCCCCCCCC` (stereo not drawn) [nonhydrolyzable phospatidylcholine]: the “absorption of lipids into cells (figure legend)” value in assay [1] (FIG. 9, nonhydrolyzable phosphatidylcholine) is “prevents absorption of lipids into cells”.

For `CCCCCCCC/C=C\CCCCCCCC(=O)OC(COC(=O)CCCCCCCCCCCCCCC)COP(=O)([O-])OCC[N+](C)(C)C` (stereo not drawn) [phosphatidylcholine, 1-palmitoyl-2-oleoyl phosphatidylcholine], the “esterification of micellar [14C]cholesterol” value in the assay with Caco-2 cells [3] (FIG. 1C, micelles with 50% or more of choline lipid as PC) is reported as “reduced to an even greater extent”. The inhibition at 200 µM in the assay on Caco-2 cells [3] (Homo sapiens, Caco-2, 6 h, read-out: [14C]cholesterol absorbed, reduction vs. phospholipid-free micelles) was 65%. In the assay on Caco-2 cells [3] (PC-containing micelles), the “ACAT activity in cells” value is “diminished”.

Take Neomycin: the “reductions in serum cholesterol levels” value in the assay on serum cholesterol is reported as “up to 25%”.
